Test results reported in patent publication US20140348857A1, “METHODS OF DIAGNOSIS AND TREATMENT OF ENDOPLASMIC RETICULUM (ER) STRESS-RELATED CONDITIONS” (MASSACHUSETTS INSTITUTE OF TECHNOLOGY, priority 2011, published 2014).
Where a SMILES comes first, the peptide text is derived from it. The star is where a group is joined. Cbz = O=C(OCc1ccccc1)*

What was measured:
[1] = tested on: PERK; assay: PERK and eIF2α phosphorylation immunoblot in HeLa cells; format: cell-based, human; conditions: control HeLa cells; Brefeldin A 5 μg/ml, Tunicamycin 3 μg/ml
Source text: To determine the effects of (ADP-ribosyl)ation on PERK and IRE1α signaling, GFP-PARP-16, GFP-PARP-16^H152Q Y182A, or GFP alone were over-expressed at similar concentrations, and PERK and IRE1α activation examined using two standard assays; (i) detection of PERK phosphorylation at Thr 981 and phosphorylation of its substrate eIF2α at Ser 51 using phospho-specific antibodies, and (ii) monitoring splicing of the IRE1α substrate XBP-1 mRNA.
To determine if PARP-16 is required for PERK or IRE1α activation, we compared activation in PARP-16 knock-downs to controls. […] Since PERK and IRE1α activity result in the time-dependent activation of downstream transcriptional programs regulated by ATF4 and spliced XBP-1, respectively, we analyzed PERK and IRE1α signaling every 4 hours over a 12-hour period in PARP-16 knock-downs and controls treated with Tunicamycin. Components of each pathway were analyzed via immunoblot or RT-qPCR analysis. While IRE1α activation, detected by phosphorylation of IRE1α, occurred 4 hours post-treatment in controls, such phosphorylation was barely detectable in PARP-16 knock-downs at any time (FIG. 7C, left). […]
Immunofluorescence analysis was performed as described in Leung et al., Mol. Cell 42: 489-499, 2011. […] Fluorescence, biochemical protease protection assays and membrane extraction assays were performed as described in Schreiber et al., Nat. […]

[2] = tested on: ERAD machinery; assay: ERAD activity assay, CD3δ-YFP clearance by cycloheximide chase; format: cell-based, human; conditions: MG132 10 μM
Source text: While our data strongly point to direct effects of PARP-16 on PERK and IRE1α signaling, compromised ERAD (ER-associated degradation) and/or chaperone capacities of the ER in PARP-16 knock-downs could also affect UPR activation. ERAD activity in PARP-16 knock-downs was examined by measuring clearance of CD3δ-YFP, a model substrate of ERAD machinery. CD3δ-YFP degradation kinetics were similar in PARP-16 knock-downs and controls as assayed by cycloheximide chase. […] The protein-folding capacity of the ER in PARP-16 knock-downs appear to be similar to controls as the protein concentrations of ER chaperones BiP and Calnexin, and disulfide isomerases PDI and ERp57, were similar (FIG. 9C).
ROS was evaluated using a cell permeant […] derivative of fluorescein (CM-H2DCFDA, Invitrogen), following the manufacturer's protocol (Invitrogen). […] The fluorescence intensity of oxidized ROS probe was measured using a microplate reader (Tecan). […] The ratiometric fluorescence at 340 nm/380 nm was measured every 2 min for 20 min, using a microplate reader (Tecan). […] Total RNA was extracted using RNeasy kits and QIAshredder (Qiagen), and cDNA was amplified using Quantitect reverse transcription kit (Qiagen). RT-qPCR was performed with Quantitect SYBR Green PCR kit (Qiagen), using a LightCycler 480 (Roche). mRNA levels were normalized against GAPDH mRNA.

| Compound | phosphorylation of PERK and eIF2α [1] | CD3δ-YFP degradation [2] |
| --- | --- | --- |
| C[C@H]1CCC/C=C/[C@@H]2C[C@H](O)C[C@H]2[C@H](O)/C=C/C(=O)O1 [Brefeldin A] | robust phosphorylation of PERK and eIF2α | – |
| CC(C)C[C@@H](C=O)NC(=O)[C@H](CC(C)C)NC(=O)[C@H](CC(C)C)NC(=O)OCc1ccccc1 [MG132] (Cbz-Leu-Leu-Leu-aldehyde) | – | rescued degradation |
| Tunicamycin | robust phosphorylation of PERK and eIF2α | – |
